Data taken from patent publication US20170183318A1, “AMIDE COMPOUNDS, METHODS FOR PREPARATION, AND USE THEREOF AS AGENTS FOR THE TREATMENT AND PREVENTION OF DISEASES CAUSED BY RNA- AND/OR DNA-CONTAINING VIRUSES, AND CONCOMITANT DISEASES” (OBSCHESTVO S OGRANICHENNOI OTVETSTVENNOSTIYU …, priority 2014, published 2017).
Read-outs that look alike come from different tables or passages of the source.

Columns and labels:
[1] = test system: human virus hRSV; experiment: Antiviral activity against mouse-adapted RS virus (body weight; viral titer in lungs titrated in Hep-2 cells); type: in vivo, mice; conditions: compounds 30 mg/kg, Ribavirin 40 mg/kg, orally once daily for 5 days, n = 6
Description: Antiviral effectiveness of the chemical compounds against RSV in an experimental murine model in vivo was determined for human virus hRSV that was previously adapted to the growth in mouse lungs. The animals were infected with the virus at a dose of 0.5 log TCID50 intranasally under brief ether anesthesia in a volume of 0.05 ml/mouse. The studied compounds were administered orally once daily for 5 days according to the treatment regimen at a dose of 30 mg/kg. The first administration was made 24 hours after infection. Normal saline solution was administered to mice as placebo. Intact animals served as a negative control and were hold in a separate room under the same conditions as the experimental animals. Each experimental group comprised 12 animals.
The antiviral activity of the studied compounds was determined by the efficiency in the prevention of weight loss and by suppression of the reproduction of hRSV in the mouse lungs by measuring a viral titer in the experimental groups relative to the control on days 5 and 7 after infection.
In addition, the therapeutic action of the compounds of general formula I was determined by their ability to suppress the reproduction of hRSV in the mouse lungs on days 5 and 7 after infection. The viral titer was determined by the titration of a 10% lung suspension in Hep-2 cell culture. The result was registered 2 days after the incubation at 37° C. by TCID.

[2] = test system: Sendai strain of parainfluenza virus; experiment: Antiviral activity against parainfluenza virus in mice (mortality); type: in vivo, white outbred mice; conditions: Mus musculus, po, 336 h, 10LD50 intranasally, 30 mg/kg orally once daily 24-120 h after infection, 14 days observation, 20 mice per group, virus control 75.0
Description: In the study the Sendai strain of parainfluenza virus was used. White outbred mice weighing 10-12 g were infected intranasally with the Sendai strain of parainfluenza virus adapted to mouse lungs under brief ether anesthesia in a volume of 0.05 ml/mouse. The infectious dose of the virus that caused 70-80% mortality in mice was 10LD50. Each group used in the experiment comprised 20 animals. Intact animals served as control and were hold in a separate room under the same conditions as the experimental animals. The antiviral activity of the compounds of general formula I was studied by oral administration of the compounds to infected mice once daily at a dose of 30 mg/kg/mouse 24, 48, 72, 96, and 120 hours after infection of the animals with the virus. The mice of the control group were administered placebo (0.2 mL of physiological solution) under the same conditions. The animals were monitored for 14 days after infection by registration the mouse death in the groups.
Each animal was subjected to once-daily observation. The observation included the assessment of general behavior and body condition of animals. In days of administration of preparations, the observation was conducted before administration of a preparation in a certain time and about two hours after administration. The animals were handled according to the International Standards.
The activity of the compounds was evaluated by comparing mortality rates in the groups of animals administered a preparation and placebo.

[3] = test system: HCoV (antigenically similar to prototype strain OC-43); experiment: Murine model of coronavirus infection (mortality); type: in vivo; conditions: Mus musculus, po, 336 h; HCoV intranasally, C57BL/6 mice; 30 mg/kg orally once daily for 5 days from 24 h after infection; 14 days; 20 mice per group; virus control 60.0
Description: In the study, author's strain HCoV was used, identified as group 2 virus antigenically similar to prototype strain OC-43. The efficiency of the compounds was studied in C57BL/6 mice by comparing mortality rates in the treated and control mice for 14 days after infection. Each experimental group comprised 20 mice. The animals were infected intranasally in a volume of 0.03 ml/mouse under brief ether anesthesia.
The studied compounds were administered to the animals orally at a dose of 30 mg/kg of body weight. The animals of the control group were administered physiological solution. Preparations were administered once daily for 5 days. The treatment of animals was started 24 hours after infection.

[4] = test system: Coxsackie A2 virus (strain HCXV A2); experiment: Antiviral activity against Coxsackie virus in vivo (mortality and life expectancy of infected mice); conditions: for inhibition in vivo at 30 mg/kg / mortality at 30 mg/kg: Mus musculus, po; for inhibition in vivo at 30 mg/kg: 168 h, read-out: Protective index (%); for mortality at 30 mg/kg: 360 h, read-out: Total mortality, %; for Average life expectancy (days), Compared with control: difference vs virus control; for Average life expectancy (days), Relative: mice infected with 10LD50 HCXV A2
Outline: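 White mice (6–7 g), 14–15 per group, infected i.m. with 10LD50 of HCXV A2; compounds 30 mg/kg orally once daily for 7 days from 24 h post-infection, saline placebo. Mortality and weight recorded daily over 15 days versus untreated infected group.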

[5] = 30 mg/kg orally once daily for 7 days
[6] = 30 mg/kg orally once daily for 7 days, vs virus control

Structure (SMILES) | Body weight of the mice on day 5 after infection with hRSV (M ± SD) ([1]; day 5) | Body weight of the mice on day 7 after infection with hRSV (M ± SD) ([1]; day 7) | mortality at 30 mg/kg [2] | mortality at 30 mg/kg [3] | inhibition in vivo at 30 mg/kg [4] | mortality at 30 mg/kg [4] | Average life expectancy (days), Compared with control [4, 5] | Average life expectancy (days), Relative [4, 5] | inhibition in vivo at 30 mg/kg [4, 6]
O=C(O)CCCC(=O)NCCC1CCCCN1 (stereo not shown) [Compound 6] | 16.47 ± 0.26 | 17.02 ± 0.29 | 25% | 35% | – | – | – | – | –
Cc1csc(CCNC(=O)CCCC(=O)O)n1 [Compound 197] | – | – | 25% | 45% | 33.3% | 42.9% | +11.2 days | 22.2 days | –
O=C(O)CCCC(=O)NCCC1CCCN1 (stereo not shown) [Compound 2] | – | – | 35% | 30% | – | 28.6% | +20.1 days | 32.3 days | 55.6%
O=C(O)CCCC(=O)NC(Cc1c[nH]cn1)C(=O)O (stereo not shown) [Compound 251] | – | – | 35% | 30% | 33.3% | 42.9% | +10.0 days | 22.2 days | –
CC(Cc1cnc[nH]1)NC(=O)CCCC(=O)O (stereo not shown) [Compound 115] | – | – | 30% | 30% | – | – | – | – | –
O=C(O)CCCC(=O)NCCCc1cccs1 [Compound 34] | – | – | 15% | 45% | – | 50% | +8.3 days | 20.5 days | 22.2%
CC(C)N(CCc1cnc[nH]1)C(=O)CCCC(=O)O [Compound 141] | – | – | 40% | 35% | – | – | – | – | –
O=C(O)CCCC(=O)NCCCc1c[nH]cn1 [Compound 118] | – | – | 30% | 40% | – | – | – | – | –
O=C(O)CCCC(=O)NCCc1nc2ccccc2s1 [Compound 275] | – | – | 40% | 40% | – | 42.9% | +9.5 days | 22.4 days | 40%
